Measurements: US11512090B2, “Muscarinic acetylcholine M1 receptor antagonists” (PIPELINE THERAPEUTICS, INC., priority 2018, dated 2022)
Like-named read-outs stand apart in the source and are kept apart here.

How the values were obtained:
Assay type in all cases: cell-based
human M1 receptor = target: T1, human M1 receptor (Homo sapiens, UniProt P11229); assay: In vitro functional assay of muscarinic acetylcholine receptor activity (aequorin calcium flux, antagonist mode vs EC80 acetylcholine), M1
T1 sequence (P11229 1-460): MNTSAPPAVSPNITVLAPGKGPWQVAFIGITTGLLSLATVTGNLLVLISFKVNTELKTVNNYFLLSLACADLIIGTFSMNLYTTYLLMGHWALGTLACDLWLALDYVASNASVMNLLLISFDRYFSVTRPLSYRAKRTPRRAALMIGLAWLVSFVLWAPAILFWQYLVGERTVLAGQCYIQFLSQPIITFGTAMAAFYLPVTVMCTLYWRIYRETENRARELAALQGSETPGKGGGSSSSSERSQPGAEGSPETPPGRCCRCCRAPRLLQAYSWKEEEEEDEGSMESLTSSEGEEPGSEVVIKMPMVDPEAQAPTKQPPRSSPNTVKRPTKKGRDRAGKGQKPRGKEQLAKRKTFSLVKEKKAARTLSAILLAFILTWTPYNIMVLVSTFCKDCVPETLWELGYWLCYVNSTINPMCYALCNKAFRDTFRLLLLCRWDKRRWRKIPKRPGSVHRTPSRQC
Description: (§1) CHO-K1 cells stably expressing human M1 receptor with Aequorin (Perkin Elmer) were grown in F12 media, 10% FBS with 0.4 mg/mL geneticin and […]. Cells were grown to confluence and frozen down to be assayed at a later date. On the day of the experiment cells were thawed in a 37° C. water bath, resuspended in DMEM/HAM's F12 with HEPES (Invitrogen)+0.1% protease-free BSA (assay buffer), and spun down to remove freezing media. After centrifugation, supernatant was removed and 12 mL of assay buffer was added. Coelenterazine h (Promega) was added to the cells at a final concentration of 5 uM and incubated for 4 hours at room temperature in the dark. Compound master plate-96 deep well (Corning) were formatted in a 8-point DRC in assay buffer with 0.2% DMSO at a starting concentration of 60 uM (2×). After 4 hours of incubation, cells were plated at a concentration of 5×10^5 cells/well in 96 well white-walled, tissue culture-treated, clear-bottom plates (VWR). Compounds were added to the daughter plate, and cells plus compound were incubated at room temperature for 30 minutes in the dark.
(§2) Calcium flux was measured using the FlexStation 3 (Molecular Devices). To measure the antagonist dose-response, the EC80 of Acetylcholine was injected to the daughter plate using the automated compound transfer function of the Flex Station, and the increase in luminescence was measured over time. Antagonist activity was analyzed as a concentration dependent decrease in the EC80 acetylcholine response. Dose response curves were generated using Prism (GraphPad Software). The IC50 of the compounds was calculated from the dose response curve.

M2 = target: T2, M2 (Homo sapiens, UniProt P08172); assay: In vitro functional assay of muscarinic acetylcholine receptor activity, M2
T2 sequence (P08172 1-466): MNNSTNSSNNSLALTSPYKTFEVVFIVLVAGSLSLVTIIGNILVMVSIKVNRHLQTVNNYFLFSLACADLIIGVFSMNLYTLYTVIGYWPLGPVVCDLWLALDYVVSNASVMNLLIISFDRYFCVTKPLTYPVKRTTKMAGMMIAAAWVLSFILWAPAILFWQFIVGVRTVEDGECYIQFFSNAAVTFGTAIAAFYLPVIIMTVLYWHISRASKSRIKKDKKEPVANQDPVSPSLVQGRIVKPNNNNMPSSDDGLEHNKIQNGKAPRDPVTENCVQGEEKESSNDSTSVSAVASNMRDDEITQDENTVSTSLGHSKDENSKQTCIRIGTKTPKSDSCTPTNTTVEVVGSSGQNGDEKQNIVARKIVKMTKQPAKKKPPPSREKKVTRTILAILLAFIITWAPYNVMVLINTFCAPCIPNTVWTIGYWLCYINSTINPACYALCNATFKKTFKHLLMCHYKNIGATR
Description: [The procedure below names another target; the source lists this target under the same test.] as §1, §2

M3 = M3 (Homo sapiens, UniProt P20309); assay: In vitro functional assay of muscarinic acetylcholine receptor activity, M3
Sequence of M3 (P20309 whole entry): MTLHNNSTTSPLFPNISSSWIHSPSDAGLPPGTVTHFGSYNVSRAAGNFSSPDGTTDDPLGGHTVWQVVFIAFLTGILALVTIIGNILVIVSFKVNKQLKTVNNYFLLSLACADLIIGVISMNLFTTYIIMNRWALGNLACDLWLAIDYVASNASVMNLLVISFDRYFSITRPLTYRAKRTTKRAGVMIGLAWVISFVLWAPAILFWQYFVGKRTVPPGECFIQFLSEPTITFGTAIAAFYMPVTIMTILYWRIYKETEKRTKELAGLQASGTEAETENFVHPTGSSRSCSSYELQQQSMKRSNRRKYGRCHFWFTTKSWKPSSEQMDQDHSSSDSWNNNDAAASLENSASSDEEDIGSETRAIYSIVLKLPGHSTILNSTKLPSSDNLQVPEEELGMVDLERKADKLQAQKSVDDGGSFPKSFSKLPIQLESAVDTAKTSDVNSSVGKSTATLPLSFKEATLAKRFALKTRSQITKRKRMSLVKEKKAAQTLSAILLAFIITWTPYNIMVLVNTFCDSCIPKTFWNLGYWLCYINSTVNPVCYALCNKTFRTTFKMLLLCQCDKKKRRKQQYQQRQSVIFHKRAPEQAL
Description: [The procedure below names another target; the source lists this target under the same test.] as §1, §2

[1] = CHO-K1 cells stably expressing human M1 receptor with Aequorin, decrease in EC80 acetylcholine response, read-out: M1 IC50
[2] = antagonist IC50 at M2, read-out: M2 IC50
[3] = antagonist IC50 at M3, read-out: M3 IC50

IC50 (human M1 receptor; [1]) | Compound | IC50 (M2; [2]) | IC50 (M3; [3]) | IC50 (human M1 receptor) | IC50 (M2) | IC50 (M3)
< 100 nM | N#Cc1ccc(C2=CC3CCC2CN3C(=O)CCS(=O)(=O)c2cccc3ncsc23)nc1 (stereo not drawn) [Example 27, 6-{2-[3-(1,3-benzothiazole-7-sulfonyl)propanoyl]-2-azabicyclo[2.2.2]oct-5-en-5-yl}pyridine-3-carbonitrile] | 100 to 1000 nM | 1000 to 10000 nM |  |  | 
< 100 nM | N#Cc1ccc(C2CC3CCC2CN3C(=O)CCS(=O)(=O)c2cccc3ncsc23)nc1 (stereo not drawn) [Example 28, 6-[2-[3-(1,3-benzothiazole-7-sulfonyl)propanoyl]-2-azabicyclo[2.2.2]octan-5-yl]pyridine-3-carbonitrile] | 100 to 1000 nM | 1000 to 10000 nM |  |  | 
 | N#Cc1ccc(N2C3CCC2CN(C(=O)CCNCc2cccc4ncsc24)C3)nc1 [Example 29, 6-[3-(3-{[(1,3-benzothiazol-7-yl)methyl]amino}propanoyl)-3,8-diaza-bicyclo[3.2.1]octan-8-yl]pyridine-3-carbonitrile] | 1000 to 10000 nM | 1000 to 10000 nM | < 100 nM |  | 
 | N#Cc1ccc(N2C3CCC2CN(C(=O)C2CC(NCc4cccc5ncsc45)C2)C3)nc1 (stereo not drawn) [Example 30, 6-[3-(3-{[(1,3-benzothiazol-7-yl)methyl]amino}cyclobutanecarbonyl)-3,8-diazabicyclo[3.2.1]octan-8-yl]pyridine-3-carbonitrile] | 1000 to 10000 nM | > 10000 nM | 100 to 1000 nM |  | 
 | N#Cc1ccc(N2C3CCC2CN(C(=O)C2CC(Cc4cccc5ncsc45)C2)C3)nc1 (stereo not drawn) [Example 31, 6-(3-{3-[(1,3-benzothiazol-7-yl)methyl]cyclobutanecarbonyl}-3,8-diazabicyclo[3.2.1]octan-8-yl)pyridine-3-carbonitrile] | 1000 to 10000 nM | 1000 to 10000 nM | < 100 nM |  | 
100 to 1000 nM | O=C(CCS(=O)(=O)c1cccc2ncsc12)N1CCC2(c3ccc(C(F)(F)F)cn3)CC2C1 (stereo not drawn) [Example 32, 3-(1,3-benzothiazole-7-sulfonyl)-1-{6-[5-(trifluoromethyl)pyridin-2-yl]-3-azabicyclo[4.1.0]heptan-3-yl}propan-1-one] | 1000 to 10000 nM | 1000 to 10000 nM |  |  | 
 | N#Cc1ccc(N2C3CCC2CN(C(=O)CCNCc2cccc4ncnn24)C3)nc1 [Example 33, 6-(3-{3-[({[1,2,4]triazolo[1,5-a]pyridin-5-yl}methyl)amino]propanoyl}-3,8-diazabicyclo[3.2.1]octan-8-yl)pyridine-3-carbonitrile] | 1000 to 10000 nM | > 10000 nM | < 100 nM |  | 
 | N#Cc1ccc(N2C3CCC2CN(C(=O)CCNCc2c(F)ccc4nccn24)C3)nc1 [Example 34, 6-(3-{3-[({6-fluoroimidazo[1,2-a]pyridin-5-yl}methyl)amino]propanoyl}-3,8-diazabicyclo[3.2.1]octan-8-yl)pyridine-3-carbonitrile] | 1000 to 10000 nM | 1000 to 10000 nM | < 100 nM |  | 
 | N#Cc1ccc(N2C3CCC2CN(C(=O)CCN(Cc2cccc4ncsc24)C2CC2)C3)nc1 [Example 35, 6-[3-(3-{[(1,3-benzothiazol-7-yl)methyl](cyclopropyl)amino}propanoyl)-3,8-diazabicyclo[3.2.1]octan-8-yl]pyridine-3-carbonitrile] | 100 to 1000 nM | 100 to 1000 nM | < 100 nM |  | 
 | [2H]C([2H])(NCCC(=O)N1CC2CCC(C1)N2c1ccc(C#N)cn1)c1cccc2ncsc12 [Example 36, 6-[3-(3-[(benzo[d]thiazol-7-ylmethyl-d2)amino]propanoyl)-3,8-diazabicyclo[3.2.1]octan-8-yl]pyridine-3-carbonitrile] | 1000 to 10000 nM | 1000 to 10000 nM | < 100 nM |  | 
 | N#Cc1ccc(N2C3CCC2CN(C(=O)CCOCc2cccc4nccnc24)C3)nc1 [Example 37, 6-(3-{3-[(quinoxalin-5-yl)methoxy]propanoyl}-3,8-diazabicyclo[3.2.1]octan-8-yl)pyridine-3-carbonitrile] | 1000 to 10000 nM | > 10000 nM | < 100 nM |  | 
 | N#Cc1ccc(N2[C@@H]3CC[C@H]2CN(C(=O)COCc2cccc4nccnc24)C3)nc1 [Example 38, 6-((1R, 5S)-3-(2-(quinoxalin-5-ylmethoxy)acetyl)-3,8-diazabicyclo[3.2.1]octan-8-yl)nicotinonitrile] | 100 to 1000 nM | 1000 to 10000 nM | < 100 nM |  | 
 | N#Cc1ccc(N2C3CCC2CN(C(=O)CCOCc2cccc4ncnn24)C3)nc1 [Example 39, 6-{3-[3-({[1,2,4]triazolo[1,5-a]pyridin-5-yl}methoxy)propanoyl]-3,8-diazabicyclo[3.2.1]octan-8-yl}pyridine-3-carbonitrile] | 1000 to 10000 nM | 1000 to 10000 nM | < 100 nM |  | 
 | N#Cc1ccc(N2[C@@H]3CC[C@H]2CN(C(=O)CCOCc2cccc4ncccc24)C3)nc1 [Example 40, 6-((1R, 5S)-3-(3-(quinolin-5-ylmethoxy)propanoyl)-3,8-diazabicyclo[3.2.1]octan-8-yl)nicotinonitrile] |  | > 10000 nM | < 100 nM | 100 to 1000 nM | 
 | N#Cc1ccc(N2C3CCC2CN(C(=O)CCOCc2cccn4ncnc24)C3)nc1 [Example 42, 6-{3-[3-({[1,2,4]triazolo[1,5-a]pyridin-8-yl}methoxy)propanoyl]-3,8-diazabicyclo[3.2.1]octan-8-yl}pyridine-3-carbonitrile] | 1000 to 10000 nM | 1000 to 10000 nM | < 100 nM |  | 
 | N#Cc1ccc(N2C3CCC2CN(C(=O)COCCc2cccc4nccnc24)C3)nc1 [Example 43, 6-(3-{2-[2-(quinoxalin-5-yl)ethoxy]acetyl}-3,8-diazabicyclo[3.2.1]octan-8-yl)pyridine-3-carbonitrile] |  |  | 100 to 1000 nM | 1000 to 10000 nM | > 10000 nM
 | N#Cc1ccc(N2C3CCC2CN(C(=O)CCCCc2cccc4ncsc24)C3)nc1 [Example 44, 6-{3-[5-(1,3-benzothiazol-7-yl)pentanoyl]-3,8-diazabicyclo[3.2.1]octan-8-yl}pyridine-3-carbonitrile] |  | 1000 to 10000 nM | < 100 nM | 100 to 1000 nM | 
 | N#Cc1ccc(N2[C@@H]3CC[C@H]2CN(C(=O)[C@H]2C[C@H](Nc4cccc5ncccc45)C2)C3)nc1 [Example 45, 6-(3-{3-[(quinolin-5-yl)amino]cyclobutanecarbonyl}-3,8-diazabicyclo[3.2.1]octan-8-yl)pyridine-3-carbonitrile] | 1000 to 10000 nM | > 10000 nM | 100 to 1000 nM |  | 
 | N#Cc1ccc(N2C3CCC2CN(C(=O)N2CC(=Cc4cccc5ncccc45)C2)C3)nc1 [Example 46, 6-(3-{3-[(quinolin-5-yl)methylidene]azetidine-1-carbonyl}-3,8-diazabicyclo-[3.2.1]octan-8-yl)pyridine-3-carbonitrile] | 1000 to 10000 nM | 1000 to 10000 nM | 100 to 1000 nM |  | 
 | O=C(CCOCc1cccc2ncccc12)N1C[C@H]2CC[C@@H](C1)N2c1ccc(F)cn1 [Example 48, 1-((1R,5S)-8-(5-fluoropyridin-2-yl)-3,8-diazabicyclo[3.2.1]octan-3-yl)-3-(quinolin-5-ylmethoxy)propan-1-one] | 1000 to 10000 nM | > 10000 nM | 100 to 1000 nM |  | 

Compound | IC50 (human M1 receptor; [1]) | IC50 (M2; [2]) | IC50 (M3; [3]) | IC50 (human M1 receptor) | IC50 (M2) | IC50 (M3)
O=C(COCc1cccc2cnccc12)N1C[C@H]2CC[C@@H](C1)N2c1ccc(F)cn1 [Example 47, 1-((1R,5S)-8-(5-fluoropyridin-2-yl)-3,8-diazabicyclo[3.2.1]octan-3-yl)-2-(isoquinolin-5-ylmethoxy)ethan-1-one] | 1000 to 10000 nM | 1000 to 10000 nM | > 10000 nM |  |  | 
